According to paper PMC8406304, “Inhibiting Type VI Secretion System Activity with a Biomimetic Peptide Designed To Target the Baseplate Wedge Complex” (mBio, 2021):
“Also recorded” adds a separate entry of the source.

What was measured:
[1] = test system: TssK-sfGFP foci in EAEC (assembled baseplates); assay type: cell-based, enteroaggregative Escherichia coli (EAEC)
Description: Fluorescence microscopy experiments were performed as previously described ([97], [98]). An overnight culture in LB of EAEC strain with a chromosomal GFP fusion to TssK was diluted 1/200 in SIM medium and grown at 37°C until the culture reached an A600 of ∼0.8. Ten optical density units (ODU) was pelleted for 10 min at 3,500 × g, resuspended at 1 ODU/ml in the same SIM medium supplemented with 0.8 M NaCl, and equilibrated for 1 h at room temperature. Cells were pelleted for 10 min at 3,500 × g, resuspended in 100 μl of classical SIM without NaCl supplemented with 1 mM peptide of buffer, and incubated for 20 min at room temperature. Cells were diluted in classical SIM medium at 0.4 ODU/ml and incubated at 37°C 160 rpm until the absorbance again reached ∼0.8. Ten ODU was harvested and resuspended in fresh SIM medium. Cell mixtures were spotted on a thin pad of SIM medium supplemented with 2% agarose, covered with a coverslip, and incubated for 20 to 30 min at room temperature before microscopy acquisition. Fluorescence microscopy was performed with a Nikon Eclipse Ti2 microscope equipped with a 100× objective (numerical aperture, 1.45), an Orca-Fusion digital camera (Hamamatsu), and a perfect focus system (PFS) to automatically maintain focus so that the point of interest within a specimen is kept in sharp focus at all times despite mechanical or thermal perturbations. All fluorescence images were acquired in Hilo mode using an Ilas2 TIRF module (Gataca Systems). Exposure times were typically 100 ms for phase contrast and 100 ms using the GFP channel. For image treatment, noise and background were reduced by filtering large structures down to 40 pixels in the FFT Bandpass Filter function of ImageJ ([102]). The GFP foci were automatically detected using the MicrobeJ plugin ([103]).

[2] = test system: EAEC T6SS+ killing of E. coli K-12 W3110 prey; assay: Antibacterial growth competition assay (EAEC attacker vs E. coli prey); assay type: cell-based, enteroaggregative Escherichia coli (EAEC); settings: 1 mM BCP added directly to competition mixture, 4 h at 37°C, CFU enumeration
Description: Based on the BCP ability to bind to TssK and to limit the in vitro binding of the TssFGE wedge components onto TssK, we evaluated its T6SS interference potential on bacteria. We set up a competition experiment between EAEC (predator, T6SS^+) and E. coli (prey, T6SS^−) strains (see Materials and Methods) in the presence or absence of the BCP. Incubation of cells with 1 mM BCP is accompanied by a drastic decrease of prey cells number, similar to what is observed in the absence of BCP. […] To test this hypothesis, we developed a protocol favoring BCP entry into bacterial cells without any electroporation or chemical steps likely to impair T6SS activity (see Materials and Methods).
The antibacterial growth competition assay was performed as previously described ([100]). Wild-type E. coli K-12 strain W3110 bearing the pUA66-rrnB plasmid (conferring kanamycin resistance and constitutive GFP fluorescence, with the gfp gene under the control of the ribosomal rrnB promoter) ([101]) was used as the recipient. Attacker and recipient cells were grown for 16 h in LB medium, diluted in SIM medium to allow maximal expression of the sci-1 gene cluster. Once the culture reached an A600 of ∼0.8, cells were harvested and normalized, and drops of the mixture were spotted in triplicate onto a prewarmed dry SIM agar plate with or without the addition of 0.5 mg ml^−1 arabinose. […]

[3] = NMR of the free cyclic peptide; assay type: physicochemical; settings: 1H-NOESY, 1.8 mM peptide, 50 mM KPO4 pH 6.9, 150 mM NaCl, 300 K
Description: All NMR experiments were recorded at 300 K on a Bruker Avance-II 600 MHz spectrometer equipped with a cryoprobe at the IMM (Institut de Microbiologie de la Mediterranée) NMR platform. The 450-μl peptide sample tube was prepared at 1.8 mM in KPO4 buffer (50 mM KPO4 [pH 6.9], 150 mM NaCl) complemented with 30 μl D2O. 1D ^1H-^1H-TOCSY, ^1H-NOESY, and ^1H-^15N HSQC spectra (F2 = 2048; F1 = 128; NS = 384) (NS is the number of scans [accumulation] for the experiment; F2 is the sweep width; F1 is the Fourier number that defines the 2D spectrum dimensions and its digital resolution) were recorded using default pulse sequences as provided by the manufacturer. For the peptide-TssK interaction experiments, 200 μl of a 410 μM stock of TssK was added to the same sample tube (1.2 mM peptide and 140 μM TssK [final concentration]), and all NMR spectra were recorded with the addition of longer ^1H-^15N HSQC spectrometry (NS = 1,024). All spectra were transformed and the figures were generated using Bruker Topspin 4.0.9.

EAEC = assay: Bacterial growth / toxicity of the peptide; assay type: cell-based, enteroaggregative Escherichia coli (EAEC); settings: up to 1 mM, EAEC TssK-GFP in SIM medium, OD at 600 nm; biological triplicates

## SRPVMG-SRPVMG-SRPVMG (head to tail) [BCP, biomimetic cyclic peptide SRPVMG-SRPVMG-SRPVMG mimicking TssG foot 1]
[1]; 1 mM
  time of maximum effect after peptide entry: within the first hour after peptide entry
[1]; 1 mM peptide, hypo-osmotic shock (osmoporation), vs peptide-free treated cells, ∼500 cells per condition, triplicate
  increase in proportion of bacteria with no observable TssK-sfGFP foci: ~30%
[1]; 1 mM peptide, hypo-osmotic shock, in words, ∼500 cells per condition, triplicate
  number of fluorescent TssK-sfGFP foci: decreased TssK-sfGFP foci compared to both control peptides
[1]; BCP, cells without osmotic shock, compared to cells without peptide
  TssK-GFP foci without osmotic shock: comparable to those without peptide
[1]; EAEC TssK-GFP, SIM medium, NaCl-induced hypo-osmotic shock
  requirement of hypo-osmotic shock for entry into cells: mandatory for BCP entry into cells
[2]
  effect on killing ability of EAEC (prey survival): does not affect the killing ability of EAEC
[3]
  3D folding / internal structure of free peptide: absence of an internal structure of the free peptide
EAEC
  toxicity for bacteria: not toxic for bacteria up to 1 mM; also recorded: no impact on the growth of EAEC
